Columns and labels:
[1] = system: PC12 cells; assay: NGF-mimic activity: neurite outgrowth in PC12 cells; format: cell-based; conditions: 48 h
Description: The neurogenic activity of samples was evaluated according to the methods described in our previous study. Briefly, approximately 5 × 10^4 cells were seeded in each well of a 24-well microplate and were cultured under a humidified atmosphere with 5% CO2 at 37 °C for 24 h. Then, the medium in each well was replaced with 1 mL of serum-free DMEM containing 40 ng/mL NGF as a positive control, 0.5% DMSO as a negative control, and the test sample after 24 h, respectively. About 100–200 cells of each well were counted from a randomly selected area and repeated thrice after 48 h. A cell-bearing neurite outgrowth longer than the diameter of the cell body was identified as a positive cell. The activity was presented as the percentage of positive cells in the selected area.
In the inhibitor experiment of NGF-mimic activity, approximately 5 × 10^4 PC12 cells were seeded into each well of a 24-well plate and incubated for 24 h. After that, the medium in each well was replaced with 500 μL of serum-free DMEM or the serum-free DMEM containing VER155008, the inhibitor of Hsc70 protein, incubated in a CO2 incubator for 30 min. Subsequently, 500 μL of serum-free DMEM containing different samples was added and cultured, respectively. The PC12 cells with neurite outgrowth were recorded after 48 h. For the Western blot analysis, the experiment included five groups, namely the control (C) group, the NGF (40 ng/mL) group, the TBG096 (1 µM) group, the VER155008 (3 µM) group, and the VER155008 (3 µM) + TBG096 (1 µM) group. Afterwards, approximately 2 × 10^6 cells per dish were seeded into ten 6 cm Petri dishes with 5 mL of DMEM medium and incubated for 24 h. After giving different treatments with samples, the cells continued to culture for 4 h. Protein extraction was conducted to prepare for the subsequent Western blot analysis.

[2] = system: HFD-induced AD mice; assay: Immunofluorescence staining of brain tissue of HFD-induced AD mice; format: in vivo
Excerpt: (§1) In experiments with the HFD-induced AD mouse model, a total of 60 Institute of Cancer Research (ICR) male mice aged 4 weeks from Zhejiang Academy of Medical Sciences (Hangzhou, China) were used for animal experiments (permit number: ZJU20230121). The animals were provided free access to a chow diet and water. […] The HFD and normal diet were alternated every two days to maintain freshness. Weekly measurements were taken for water intake, food intake, and body weight. In the eighteenth week, the mice underwent Y-maze and NOR tests. The Morris water maze test was conducted during the nineteenth week. After confirming the successful establishment of the AD model characterized by cognitive impairment, oral administration of treatments commenced. […] Each group had 10 mice.
At the end of animal experiments, three mice in each group were taken for heart perfusion with cold PBS and 4% paraformaldehyde. After that, the brains of mice were fixed with 4% paraformaldehyde for 24 h and gradually dehydrated with 15% and 30% sucrose solutions for 48 h, respectively. The fixed and embedded brain sample was placed in a cryostat and cut into 20 µm thick slices with a cryostat (Thermo Fisher, Waltham, MA, USA), and brain slices in the hippocampus and cortex were collected. Finally, the brain slices were placed in antifreeze (glycerol/ethylene/PBS = 3:3:4) and kept in a refrigerator at −30 °C until immunostaining. The brain slices were fixed on a glass slide and hydrated with PBS for 5 min. Then, blocking buffer was added to the brain slices and incubated at room temperature for 1 h. Brain slices were washed twice with PBS and incubated with anti-NeuN, anti-BrdU, anti-Iba1, anti-GFAP, anti-INOS, anti-APP, or anti-p-Tau at 4 °C for 24 h, respectively. Subsequently, the brain slices were incubated with secondary antibody (goat anti-rabbit IgG H&L (Alexa Fluor® 488) or rabbit anti-mouse IgG (Cy3 conjugate)) at room temperature for 2 h after washing with PBS three times. Finally, a cover glass was used to lightly cover the slices stained with DAPI. […] Biomarker proteins in the cerebral cortex and hippocampus were digitized by Image J software (National Institutes of Health, Bethesda, MD, USA).

[3] = system: HFD-induced AD mice; assay: Neurogenesis: NeuN/BrdU double staining in HFD-induced AD mice; format: in vivo; conditions: 5 mg/kg, vs HFD-only
Description: In order to investigate the effect of TBG096 on promoting neuronal regeneration, animal experiments were carried out according to the method previously reported. Fifteen 4-week-old ICR male mice purchased from Zhejiang Academy of Medical Sciences (Hangzhou, China) were randomly divided into three groups, namely the (i) normal control group, (ii) HFD group, and (iii) HFD + TBG096 5 mg/kg group, and given a normal diet or high-fat diet for two months to construct the AD mouse model, respectively. After confirming the successful construction of the AD model, TBG096 was administered once a day at a dose of 5 mg/kg for 1 month, and soybean oil was used as a vehicle. BrdU was then injected into the mice at a dose of 100 mg/kg in four injections over two days, each 12 h apart. Administration of TBG096 was continued for 28 days. At the end of animal experiments, the mice were anesthetized and cardiac […]. The brains of mice were taken, fixed, and sectioned, and immunostaining was performed with NeuN and BrdU antibodies.
At the end of animal experiments, three mice in each group were taken for heart perfusion with cold PBS and 4% paraformaldehyde. After that, the brains of mice were fixed with 4% paraformaldehyde for 24 h and gradually dehydrated with 15% and 30% sucrose solutions for 48 h, respectively. […]

[4] = system: PC12 cells; assay: EdU cell proliferation in PC12 cells (inhibitor experiment); format: cell-based; conditions: 24 h
Description: In the inhibitor experiment of EdU cell proliferation activity, PC12 cells were seeded into each well of a 24-well plate as above for 24 h. Then, the medium in each well was replaced with 500 μL of serum-free […] containing VER155008 (inhibitor of Hsc70, 3 µM), or NH4Cl (inhibitor of lysosome, 250 µM) for 30 min according to the literature, and 500 μL of serum-free DMEM containing different samples was added and cultured for 24 h, respectively. After that, PC12 cells were treated with EdU for 2 h according to the operation steps of the BeyoClick™ EdU-488 cell proliferation detection kit (#C0071S, Beyotime Biotechnology, Shanghai, China). After cell labeling, the supernatant was removed. Then, PC12 cells were fixed, washed, and blocked, and the click reaction solution was added at room temperature for 30 min. After that, DAPI staining was performed for 10 min. Finally, PC12 cells were detected by fluorescence microscope (Olympus IX53, Tokyo, Japan).

[5] = system: gut microbiota; assay: Gut microbiota analysis in HFD-induced AD mice; format: in vivo; conditions: Met 140 mg/kg
Excerpt: as §1

For O=C(SCCCCCCSCCCC(F)(F)F)c1cccc(O)c1O [TBG096], the “percentage of PC12 cells exhibiting neurite growth” value ([1]; 0.3, 1, and 3 µM, listed as 3) was “superior activity”, the “NGF-mimic effect after treatment with VER155008 (Hsc70 inhibitor)” value ([1]; PC12 cells) was “significantly diminished” and the “APP and phosphorylation Tau protein in the hippocampus” value ([2]; immunofluorescence) was “reduction”. The “Iba1, GFAP, INOS markers (activated microglia, astrocytes, M1 macrophages) in the hippocampus” value ([2]; vs HFD-only) was “significantly reduced”, the “number of mature neurons (NeuN) in the cerebral cortex” value ([2]; vs HFD-only group) was “increased numbers of mature neurons” and the “number of NeuN+ and BrdU+ neurons in the cerebral cortex” value [3] was “increased numbers”. The “number of newborn neurons in the hippocampus” value [3] was “elevated”, the “EdU cell proliferation activity” value [4] was “promoting PC12 cell proliferation” and the “abundance of Firmicutes (decreased by HFD) and Bacteroidota (increased by HFD)” value ([5]; TBG096 20 mg/kg) was “reversed”. The “abundance of Ligilactobacillus” value ([5]; TBG096 5 and 20 mg/kg) was “improved”.

From publication PMC11943016, “TBG096 Ameliorates Memory Deficiency in AD Mouse Model via Promoting Neurogenesis and Regulation of Hsc70/HK2/PKM2/LAMP2A Signaling Pathway” (International Journal of Molecular Sciences, 2025)
